Results published in ChEMBL document CHEMBL1833788, “Selective water-soluble gelatinase inhibitor prodrugs” (J Med Chem, 2011).

What was measured:
[1] = test system: Mus musculus; experiment: AUC (0 to infinity) in C57B1/6 mouse plasma assessed as parent compound level at […], iv administered as single bolus dose; assay type: ADME, organism-based; conditions: in vivo
[2] = test system: Mus musculus; experiment: Prodrug conversion in C57B1/6 mouse assessed as 4-[4-((Thiiran-2-yl)methylsulphonyl)phenoxy]benzamine level in plasma at […], iv administered as single bolus dose after 11 to 12 mins by reversed-phase HPLC/UV analysis; assay type: ADME, organism-based; conditions: in vivo, read-out: Drug metabolism
[3] = test system: Mus musculus; experiment: Prodrug conversion in C57B1/6 mouse assessed as 4-[4-((Thiiran-2-yl)methylsulphonyl)phenoxy]benzamine level in plasma at […], iv administered as single bolus dose after 240 mins by reversed-phase HPLC/UV analysis; assay type: ADME, organism-based; conditions: in vivo, 4 h, read-out: Drug metabolism
[4] = test system: Mus musculus; experiment: Prodrug conversion in C57B1/6 mouse assessed as N-(4-(4-(thiiran-2-ylmethylsulfonyl)phenoxy)phenyl)acetamide level in plasma at […], iv administered as single bolus dose after 42 mins by reversed-phase HPLC/UV analysis; assay type: ADME, organism-based; conditions: in vivo, 0.7 h
[5] = test system: Mus musculus; experiment: Distribution half life in C57B1/6 mouse plasma assessed as 4-[4-((Thiiran-2-yl)methylsulphonyl)phenoxy]benzamine level at […], iv administered as single dose; assay type: ADME, organism-based; conditions: in vivo
[6] = test system: Mus musculus; experiment: Prodrug conversion in C57B1/6 mouse assessed as 4-[4-((Thiiran-2-yl)methylsulphonyl)phenoxy]benzamine level in plasma at […], iv administered as single bolus dose after 120 to 123 mins by reversed-phase HPLC/UV analysis; assay type: ADME, organism-based; conditions: in vivo
[7] = test system: Mus musculus; experiment: Prodrug conversion in C57B1/6 mouse assessed as 4-[4-((Thiiran-2-yl)methylsulphonyl)phenoxy]benzamine level in plasma at […], iv administered as single bolus dose after 22 mins by reversed-phase HPLC/UV analysis; assay type: ADME, organism-based; conditions: in vivo
[8] = test system: Mus musculus; experiment: Prodrug conversion in C57B1/6 mouse assessed as 4-[4-((Thiiran-2-yl)methylsulphonyl)phenoxy]benzamine level in plasma at […], iv administered as single bolus dose after 4 to 5 mins by reversed-phase HPLC/UV analysis; assay type: ADME, organism-based; conditions: in vivo
[9] = test system: Mus musculus; experiment: Prodrug conversion in C57B1/6 mouse assessed as 4-[4-((Thiiran-2-yl)methylsulphonyl)phenoxy]benzamine level in plasma at […], iv administered as single bolus dose after 7 to 8 mins by reversed-phase HPLC/UV analysis; assay type: ADME, organism-based; conditions: in vivo
[10] = test system: Mus musculus; experiment: Prodrug conversion in C57B1/6 mouse plasma assessed as parent compound level at […], iv administered as single bolus dose after 7 to 8 mins by reversed-phase LC/MS analysis; assay type: ADME, organism-based; conditions: in vivo
[11] = test system: Mus musculus; experiment: Distribution half life in C57B1/6 mouse plasma assessed as parent compound level at […], iv administered as single bolus dose; assay type: ADME, organism-based; conditions: in vivo
[12] = test system: Mus musculus; experiment: Prodrug conversion in C57B1/6 mouse assessed as 4-[4-((Thiiran-2-yl)methylsulphonyl)phenoxy]benzamine level in plasma at […], iv administered as single bolus dose after 2 to 3 mins by reversed-phase HPLC/UV analysis; assay type: ADME, organism-based; conditions: in vivo
[13] = test system: Mus musculus; experiment: Prodrug conversion in C57B1/6 mouse assessed as N-(4-(4-((Thiiran-2-ylmethyl)sulfonyl)phenoxy)phenyl) hydroxylamine level in plasma at […], iv administered as single dose by reversed-phase LC/MS analysis; assay type: ADME, organism-based; conditions: in vivo
[14] = test system: Mus musculus; experiment: AUC (0 to last) in C57B1/6 mouse plasma assessed as N-(4-(4-(thiiran-2-ylmethylsulfonyl)phenoxy)phenyl)acetamide level at […], iv administered as single bolus dose; assay type: ADME, organism-based; conditions: in vivo
[15] = test system: Mus musculus; experiment: AUC (0 to last) in C57B1/6 mouse plasma assessed as 4-[4-((Thiiran-2-yl)methylsulphonyl)phenoxy]benzamine level at […], iv administered as single bolus dose; assay type: ADME, organism-based; conditions: in vivo
[16] = test system: Mus musculus; experiment: AUC (0 to infinity) in C57B1/6 mouse plasma assessed as N-(4-(4-(thiiran-2-ylmethylsulfonyl)phenoxy)phenyl)acetamide level at […], iv administered as single bolus dose; assay type: ADME, organism-based; conditions: in vivo, BLD = below limit of detection
[17] = test system: Mus musculus; experiment: Volume of distribution in C57B1/6 mouse plasma assessed as parent compound level at […], iv administered as single bolus dose; assay type: ADME, organism-based; conditions: in vivo
[18] = test system: Mus musculus; experiment: Prodrug conversion in C57B1/6 mouse plasma assessed as parent compound level at […], iv administered as single bolus dose after 4 to 5 mins by reversed-phase LC/MS analysis; assay type: ADME, organism-based; conditions: in vivo, read-out: Drug metabolism
[19] = test system: Mus musculus; experiment: Prodrug conversion in C57B1/6 mouse assessed as 4-[4-((Thiiran-2-yl)methylsulphonyl)phenoxy]benzamine level in plasma at […], iv administered as single bolus dose after 42 mins by reversed-phase HPLC/UV analysis; assay type: ADME, organism-based; conditions: in vivo, 0.7 h, read-out: Drug metabolism
[20] = test system: Mus musculus; experiment: Prodrug conversion in C57B1/6 mouse plasma assessed as parent compound level at […], iv administered as single bolus dose after 11 to 12 mins by reversed-phase LC/MS analysis; assay type: ADME, organism-based; conditions: in vivo, read-out: Drug metabolism
[21] = test system: Mus musculus; experiment: Prodrug conversion in C57B1/6 mouse assessed as N-(4-(4-(thiiran-2-ylmethylsulfonyl)phenoxy)phenyl)acetamide level in plasma at […], iv administered as single bolus dose after 62 to 66 mins by reversed-phase LC/MS analysis; conditions: in vivo
[22] = test system: Mus musculus; experiment: Prodrug conversion in C57B1/6 mouse plasma assessed as parent compound level at […], iv administered as single bolus dose after 240 mins by reversed-phase LC/MS analysis; assay type: ADME, organism-based; conditions: in vivo, 4 h, read-out: Drug metabolism
[23] = test system: Mus musculus; experiment: Prodrug conversion in C57B1/6 mouse assessed as N-(4-(4-(thiiran-2-ylmethylsulfonyl)phenoxy)phenyl)acetamide level in plasma at […], iv administered as single bolus dose after 2 to 3 mins by reversed-phase LC/MS analysis; conditions: in vivo
[24] = test system: Mus musculus; experiment: Terminal half life in C57B1/6 mouse plasma assessed as parent compound level at […], iv administered as single bolus dose; assay type: ADME, organism-based; conditions: in vivo
[25] = test system: Mus musculus; experiment: Prodrug conversion in C57B1/6 mouse plasma assessed as parent compound level at […], iv administered as single bolus dose after 62 to 66 mins by reversed-phase LC/MS analysis; assay type: ADME, organism-based; conditions: in vivo, read-out: Drug metabolism
[26] = test system: Mus musculus; experiment: Terminal half life in C57B1/6 mouse plasma assessed as N-(4-(4-(thiiran-2-ylmethylsulfonyl)phenoxy)phenyl)acetamide level at […], iv administered as single bolus dose; assay type: ADME, organism-based; conditions: in vivo, BLD = below limit of detection
[27] = test system: Mus musculus; experiment: Prodrug conversion in C57B1/6 mouse assessed as N-(4-(4-(thiiran-2-ylmethylsulfonyl)phenoxy)phenyl)acetamide level in plasma at […], iv administered as single bolus dose after 11 to 12 mins by reversed-phase LC/MS analysis; conditions: in vivo
[28] = test system: Mus musculus; experiment: AUC (0 to infinity) in C57B1/6 mouse plasma assessed as 4-[4-((Thiiran-2-yl)methylsulphonyl)phenoxy]benzamine level at […], iv administered as single bolus dose; assay type: ADME, organism-based; conditions: in vivo
[29] = test system: Mus musculus; experiment: Prodrug conversion in C57B1/6 mouse assessed as 4-[4-((Thiiran-2-yl)methylsulphonyl)phenoxy]benzamine level in plasma at […], iv administered as single bolus dose after 62 to 66 mins by reversed-phase HPLC/UV analysis; assay type: ADME, organism-based; conditions: in vivo, read-out: Drug metabolism
[30] = test system: Mus musculus; experiment: Prodrug conversion in C57B1/6 mouse assessed as N-(4-(4-(thiiran-2-ylmethylsulfonyl)phenoxy)phenyl)acetamide level in plasma at […], iv administered as single bolus dose after 22 mins by reversed-phase HPLC/UV analysis; assay type: ADME, organism-based; conditions: in vivo

Cl.N=C(N)NCCC[C@H](N)C(=O)Nc1ccc(Oc2ccc(S(=O)(=O)CC3CS3)cc2)cc1 (stereo not given in full)
AUC [1]: 363 µM·min | concentration [2]: 2450 nM | concentration [3]: 14.5 nM | Drug metabolism [4]: 0.0358 µM | alphat1/2 [5]: 2.9 min | Drug metabolism [6]: 0.0248 µM | Drug metabolism [7]: 0.787 µM | Drug metabolism [8]: 10.4 µM | Drug metabolism [9]: 4.5 µM | Drug metabolism [10]: 1.28 µM | alphat1/2 [11]: 0.88 min | Drug metabolism [12]: 12.3 µM | Drug metabolism [13]: Not Active | AUClast [14]: 4.22 µM·min | AUClast [15]: 137 µM·min | AUC [16]: BLD | Vd [17]: 0.0978 L/kg | concentration [18]: 7320 nM | concentration [19]: 207 nM | concentration [20]: 1580 nM | Drug metabolism [21]: 0.0121 µM | concentration [22]: 8.3 nM | Drug metabolism [23]: 0.0354 µM | beta t1/2 [24]: 4.33 h | concentration [25]: 38.5 nM | beta t1/2 [26]: BLD | Drug metabolism [27]: 0.149 µM | AUC [28]: 138 µM·min | concentration [29]: 90.8 nM | Drug metabolism [30]: 0.0627 µM
